This test concerns MuRF1. The test is described as follows: Expression of MuRF1 in dexamethasone-induced muscle atrophy rats. Format: in vivo, SD rats. The note with it: versus increase induced by dexamethasone; MIX 100 mg/kg, PC 320 mg/kg oral; FIG. 7. The source says:
In the process of treating muscle atrophy, the effects of the composite (extracts) of leaves of mulberry and Angelica keiskei on the expression of MyoD (a factor involved in muscle production) and on the expression of MuRF1 (a factor related to muscle atrophy) were confirmed.

For the molecule `CC(C)(O)CC(=O)O` [PC, 3-hydroxy-3-methylbutyric acid], the “expression of MuRF1” value was “tended to decrease”.

(Values after patent US20250064877A1, “COMPOSITION FOR INCREASING MUSCLE STRENGTH CONTAINING COMPLEX EXTRACT OF ANGELICA KEISKEI AND LEAVES OF MORUS ALBA L” (HAMSOA PHARMACEUTICAL CO., LTD., priority 2022, published 2025).)
